experiment: in vitro; settings: human, hela cells, % viability

SMILES | viability at 28.5 h, 10 µM [%]
COc1ccc2c(c1)CC(=O)NC21CCN(CCCCC(C)C)CC1 [CBK039839] | 95.3
Fc1ccc2c3c([nH]c2c1)C1(CCN(CCCOCc2ccccc2)CC1)NCC3 [CBK039858] | 92.7
COc1cc2c(cc1OC)C1(CCN(CCCC(F)(F)F)CC1)NC(=O)C2 [CBK039859] | 97.9
c1ccc(COc2ccc3[nH]c4c(c3c2)CCNC42CCN(Cc3ccccc3-c3ccccc3)C2)cc1 (stereo not drawn) [CBK039909] | 73.9
Cc1cccc2c1CC(=O)NC21CCN(CC(=O)c2ccc(F)cc2)CC1 [CBK039946] | 96
Cn1c2c(c3ccccc31)CCOC21CCN(Cc2ccc(OC(F)F)cc2)CC1 [CBK039975] | 95.8
O=C1Cc2cc3ccccc3cc2C2(CCN(CCC(F)=C(F)F)CC2)N1 [CBK040033] | 94.6
COc1cccc2c3c([nH]c12)C1(CCN(CCc2scnc2C)CC1)NCC3 [CBK040058] | 89
CC(c1nc2ccccc2[nH]1)N1CCC2(CC1)NCCc1c2[nH]c2ccccc12 (stereo not drawn) [CBK040061] | 90.3
FC(F)(F)c1ccc(CN2CCCC3(C2)NCCc2c3[nH]c3ccccc23)cc1 (stereo not drawn) [CBK040095] | 94.2
COc1ccc2[nH]c3c(c2c1)CCNC31CCN(CCC2CCCCC2)C1 (stereo not drawn) [CBK040111T] | 90.7
COc1ccc2[nH]c3c(c2c1)CCOC31CCN(CCC(F)=C(F)F)CC1 [CBK040118] | 103
c1csc(CCN2CCC3(CC2)OCCc2c3[nH]c3ccccc23)c1 [CBK040156] | 87.1
Cc1ccc2c(c1)C1(CCN(C/C=C\c3ccccc3)CC1)NC(=O)C2 [CBK040216] | 94.1
COCCOCCCN1CCC2(CC1)NC(=O)Cc1ccc(C)cc12 [CBK040222] | 109
CC(C)(C)C(=O)CN1CCC2(CC1)OCCc1c2[nH]c2ccc(F)cc12 [CBK040237] | 95.8
COC(=O)c1cccc(CN2CCC3(CC2)OCCc2c3[nH]c3ccc(F)cc23)c1 [CBK040326] | 100
O=CN1CCc2c([nH]c3ccc(F)cc23)C12CCN(Cc1cccc(Oc3ccc(F)cc3)c1)CC2 [CBK040388] | 96.4
Cc1ccc2[nH]c3c(c2c1)CCN(C=O)C31CCN(Cc2ccc(OC(F)F)cc2)CC1 [CBK040438] | 101
CN(C)C(C)(C)COc1ncccc1OCCO [CBK042184] | 112
CN1CCC[C@H]1COc1ncccc1OCCO [CBK042185] | 92.6
CN1CCN(c2ccc([N+](=O)[O-])c(NCc3ccccc3)c2)CC1 [CBK042199] | 93.7

SMILES | viability at 28.5 h, 10 µM [%]
O=[N+]([O-])c1ccc(N2CCN(CCO)CC2)cc1NCc1ccc(Cl)cc1 [CBK042201] | 99.6
O=C(CNS(=O)(=O)c1ccc(F)cc1)N1CCOCC1 [CBK042214] | 97.7
O=C(CNS(=O)(=O)c1cc(F)c(Br)cc1F)N1CCOCC1 [CBK042216] | 107
O=C(CNS(=O)(=O)Cc1ccccc1[N+](=O)[O-])N1CCOCC1 [CBK042220] | 82.7
O=C(CNS(=O)(=O)c1ccc(Oc2ccccc2)cc1)Nc1ccc(F)cc1 [CBK042229] | 104
Cc1ccc(S(=O)(=O)Nc2sccc2C(=O)O)cc1[N+](=O)[O-] [CBK042258] | 102
Cc1ccc(S(=O)(=O)Nc2sccc2C(=O)N2CCN(C)CC2)cc1 [CBK042264] | 89.3
CN1CCN(C(=O)c2ccsc2NS(=O)(=O)c2ccc(Oc3ccccc3)cc2)CC1 [CBK042277] | 87
O=C(c1ccsc1NS(=O)(=O)c1cc(Cl)sc1Cl)N1CCOCC1 [CBK042288] | 92.5
Cc1ccc(S(=O)(=O)Nc2sccc2C(=O)Nc2ccc(F)cc2)cc1 [CBK042302] | 98.5
O=C(Nc1ccc(F)cc1)c1ccsc1NS(=O)(=O)Cc1ccccc1[N+](=O)[O-] [CBK042313] | 91.7
CCN(CC)C(=O)c1ccsc1NS(=O)(=O)c1cccc2cccnc12 [CBK042317] | 87.1
CCN(CC)C(=O)c1ccsc1NS(=O)(=O)c1ccc(Br)cc1 [CBK042318] | 93.2
CCCc1ccc(S(=O)(=O)Nc2ccccc2C(=O)O)cc1 [CBK042366] | 72.4
Cc1noc(C)c1S(=O)(=O)Nc1ccccc1C(=O)O [CBK042371] | 89.8
O=C(O)c1ccccc1NS(=O)(=O)Cc1ccccc1[N+](=O)[O-] [CBK042373] | 91.9
Cc1ccc(S(=O)(=O)Nc2ccccc2C(=O)O)cc1[N+](=O)[O-] [CBK042374] | 84.5
CSc1cccc(NC(=O)N2CCN(C(=O)C3CCCO3)CC2)c1 (stereo not drawn) [CBK043283] | 100
O=C(c1ccccc1NS(=O)(=O)c1ccc(Br)cc1)N1CCOCC1 [CBK043340] | 100
COc1cc(NC(=O)NCCc2cccs2)cc(OC)c1OC [CBK043347] | 94.6
O=C(c1ccccc1NS(=O)(=O)c1ccc(C(F)(F)F)cc1[N+](=O)[O-])N1CCOCC1 [CBK043353] | 84.4
CCC(C)(C)c1ccc(S(=O)(=O)N(C)CCC#N)cc1 [CBK043395] | 118

SMILES | viability at 28.5 h, 10 µM [%]
COC(=O)NC(=O)N1CCN(c2c(Cl)cncc2Cl)CC1 [CBK043398] | 108
CCOC(=O)CN(Cc1ccccc1)S(=O)(=O)c1ccc(C(C)C)cc1 [CBK043404] | 103
CCCN(CCC#N)S(=O)(=O)c1ccc(C(C)C)cc1 [CBK043453] | 94.4
Cc1cc(S(=O)(=O)N(CCC#N)Cc2ccccc2)c(C)cc1Cl [CBK043461] | 90.8
CC(C)c1ccc(S(=O)(=O)NCc2c(F)ccc(Cl)c2F)cc1 [CBK043484] | 88.4
CNC(=O)c1ccc(NS(=O)(=O)c2ccc(OC(F)(F)F)cc2)cc1 [CBK043495] | 96.7
O=S(=O)(Nc1ccccc1O)c1ccc(OC(F)(F)F)cc1 [CBK043512] | 80.2
CCC(O)CNS(=O)(=O)c1ccc(OC(F)(F)F)cc1 (stereo not drawn) [CBK043557] | 97.9
Cc1ccc(NS(=O)(=O)c2ccc(OC(F)(F)F)cc2)nc1 [CBK043577] | 95.8
O=S(=O)(c1ccc(Br)s1)N1CCC(Cc2ccccc2)CC1 [CBK043580] | 89.7
CC(C)c1ccc(S(=O)(=O)N(C)Cc2cccnc2)cc1 [CBK043582] | 108
CC(NS(=O)(=O)c1cccs1)c1ccccc1 (stereo not drawn) [CBK043601] | 114
CC(=O)c1cccc(NS(=O)(=O)c2ccc(OC(F)(F)F)cc2)c1 [CBK043606] | 88.5
Cc1cc(S(=O)(=O)N(CCC#N)c2ccccc2)c(C)cc1Cl [CBK043618] | 85.7
O=S(=O)(CCc1ccccn1)N1CCC(Cc2ccccc2)CC1 [CBK043632] | 107
Fc1ccc2c(ccn2CCCN2CCN(c3ccncc3)CC2)c1 [CBK043645G] | 89.4
CCOC(=O)CN1CCN(C(=O)Nc2ccccc2OC(F)(F)F)CC1 [CBK043656] | 97
CCCNC(=O)NCCc1cccs1 [CBK043675] | 102
N#CC(NS(=O)(=O)c1ccc(OC(F)(F)F)cc1)c1ccccc1 (stereo not drawn) [CBK043714] | 97.6
CC(=O)NCCNS(=O)(=O)c1ccc(C(C)C)cc1 [CBK043726] | 92.5
CCC(C)(C)c1ccc(S(=O)(=O)Nc2n[nH]cc2Br)cc1 [CBK043734] | 85
N#Cc1ccc(NC(=O)NCCc2cccs2)cc1 [CBK043736] | 115

SMILES | viability at 28.5 h, 10 µM [%]
O=S(=O)(NCc1ccc(C(F)(F)F)cc1)c1cccs1 [CBK043744] | 94.5
CCOC(=O)C1CCN(S(=O)(=O)c2ccc(NC(C)=O)c(Cl)c2)CC1 [CBK043748] | 93.5
O=C(NCCc1cccs1)Nc1ccc(Cl)c(C(F)(F)F)c1 [CBK043775] | 97.6
CCOC(=O)CN1CCN(S(=O)(=O)c2ccc(F)c(Cl)c2)CC1 [CBK043782] | 89.3
O=S(=O)(NCc1ccc(F)cc1Cl)c1ccc(Cl)c(Cl)c1 [CBK043785] | 91
Cc1cc(S(=O)(=O)N(C)CCC#N)c(C)cc1Cl [CBK043787] | 111
O=S(=O)(c1ccc(Cl)c(Cl)c1)N1CCOCC1 [CBK043794] | 90.7
CCN(Cc1ccncc1)S(=O)(=O)c1ccc(Cl)c(Cl)c1 [CBK043818] | 96.2
COCCN(C)S(=O)(=O)c1cc(C)c(Cl)cc1C [CBK043867] | 105
CCc1cc(Br)ccc1S(=O)(=O)Nc1ccccc1O [CBK043877] | 92
O=S(=O)(Nc1cccc2cccnc12)c1cccs1 [CBK043904] | 60.8
CC(C)c1ccccc1NC(=O)NCCc1cccs1 [CBK043938] | 97.9
Cc1cccc(C(C)(C)C)c1NC(=O)N1CCC(Cc2ccccc2)CC1 [CBK043962] | 112
O=C(Nc1ccc2ccccc2c1)N1CCN(C(=O)C2CCCO2)CC1 (stereo not drawn) [CBK044043] | 96.6
CC(=O)Nc1ccc(S(=O)(=O)Nc2ccc(CC#N)cc2)cc1Cl [CBK044058] | 87.8
O=S(=O)(NCCc1cccc(C(F)(F)F)c1)c1cccs1 [CBK044068] | 91.1
CC1CN(C2CCN(S(=O)(=O)c3cccs3)CC2)C(=O)O1 (stereo not drawn) [CBK044072] | 112
COC(=O)c1cc(NC(=O)NCCC2=CCCCC2)cc(C(=O)OC)c1 [CBK044120] | 90.9
CCC(C)(C)c1ccc(S(=O)(=O)NCCCN2CCCC2)cc1 [CBK044126] | 95.8
Cc1ccc(NC(=O)NCCC2=CCCCC2)cc1Cl [CBK044135] | 110
CCOC(=O)CN1CCN(C(=O)Nc2ccccc2Br)CC1 [CBK044156] | 103

same assay, conditions: human, hela cells, % viability, bulk resorufin, single well

SMILES | viability at 28.5 h, 10 µM [%]
O=C(Nc1ccccc1C(F)(F)F)N1CCC2(CC1)OCCO2 [CBK043655] | 94.1
COC(=O)c1cccc(NC(=O)N2CCC3(CC2)OCCO3)c1 [CBK043713] | 91.1
CC(C)(C)c1ccccc1NC(=O)N1CCC2(CC1)OCCO2 [CBK043720] | 91.3

— publication PMC12040169 (PLOS Biology, 2025)
